In patent US20220128542A1, “TREATMENT EFFICIENCY EVALUATION” (TX MEDIC AB, priority 2019, published 2022):

System: brain of rats subjected to severe traumatic brain injury (sTBI)
Assay: Ingenuity pathway analysis of differentially regulated genes after sTBI (canonical pathways, diseases and molecular functions; Example 4)
Design: species or system rat
Protocol: Pathway analysis of the differentially regulated genes was carried out using the Ingenuity pathway analysis package. The analysis was performed with special reference to pathways and molecular processes and diseases associated with neurodegenerative disease, including dementia, Alzheimer's disease, ALS, TBI and stroke, and with scarring and fibrosis, including glaucoma and normal pressure hydrocephalus (NPH) after subarachnoid haemorrhage.

[1] = TBI + 5 mg/kg LMW-DS, 7 days after TBI
[2] = TBI + 15 mg/kg LMW-DS, 2 days after TBI
[3] = TBI + 15 mg/kg LMW-DS, 7 days after TBI, relative to control
[4] = TBI + 15 mg/kg LMW-DS, 7 days after TBI
[5] = TBI + 15 mg/kg repeat dose LMW-DS, 7 days after TBI
[6] = TBI + 15 mg/kg repeated dose LMW-DS, 7 days after TBI, relative to control
[7] = TBI + 15 mg/kg repeated dose LMW-DS, 7 days after TBI

Substance: sodium salt of dextran sulfate [LMW-DS]
- Ingenuity canonical pathway: Acute Phase Response Signaling [1]: Activated
- Ingenuity canonical pathway: Adrenomedullin signaling pathway [1]: Inhibited
- Ingenuity canonical pathway: Cardiac Hypertrophy Signaling [1]: Activated
- Ingenuity canonical pathway: Colorectal Cancer Metastasis Signaling [1]: Inhibited
- Ingenuity canonical pathway: Dendritic Cell Maturation [1]: Activated
- Ingenuity canonical pathway: ERK5 Signaling [1]: Inhibited
- Ingenuity canonical pathway: ERK/MAPK Signaling [1]: Activated
- Ingenuity canonical pathway: Endothelin-1 Signaling [1]: Activated
- Ingenuity canonical pathway: Fcγ Receptor-mediated Phagocytosis in Macrophages and Monocytes [1]: Activated
- Ingenuity canonical pathway: GNRH Signaling [1]: Activated
- Ingenuity canonical pathway: HMGB1 Signaling [1]: Activated
- Ingenuity canonical pathway: IL-1 Signaling [1]: Activated
- Ingenuity canonical pathway: IL-6 Signaling [1]: Activated
- Ingenuity canonical pathway: IL-8 Signaling [1]: Activated
- Ingenuity canonical pathway: ILK Signaling [1]: Activated
- Ingenuity canonical pathway: Leukocyte Extravasation Signaling [1]: Activated
- Ingenuity canonical pathway: Neuroinflammation Signaling Pathway [1]: Activated
- Ingenuity canonical pathway: Osteoarthritis Pathway [1]: Inhibited
- Ingenuity canonical pathway: PI3K Signaling in B Lymphocytes [1]: Activated
- Ingenuity canonical pathway: PKCO Signaling in T Lymphocytes [1]: Activated
- Ingenuity canonical pathway: PPAR Signaling [1]: Inhibited
- Ingenuity canonical pathway: Phospholipase C Signaling [1]: Activated
- Ingenuity canonical pathway: Production of Nitric Oxide and Reactive Oxygen Species in Macrophages [1]: Activated
- Ingenuity canonical pathway: Protein Kinase A Signaling [1]: Inhibited
- Ingenuity canonical pathway: Role of NFAT in Regulation of the Immune Response [1]: Activated
- Ingenuity canonical pathway: Signaling by Rho Family GTPases [1]: Activated
- Ingenuity canonical pathway: Synaptic Long Term Depression [1]: Activated
- Ingenuity canonical pathway: Wnt/β-catenin Signaling [1]: Inhibited
- Ingenuity canonical pathway: cAMP-mediated signaling [1]: Inhibited
- Ingenuity canonical pathway: mTOR Signaling [1]: Activated
- Effect on diseases or functions annotation: Apoptosis [2]: Inhibited
- Effect on diseases or functions annotation: Apoptosis of tumor cell lines [2]: Activated
- Effect on diseases or functions annotation: Behavior [2]: Inhibited
- Effect on diseases or functions annotation: Cell death [2]: Inhibited
- Effect on diseases or functions annotation: Necrosis [2]: Inhibited
- Effect on diseases or functions annotation: Quantity of blood cells [2]: Inhibited
- Effect on diseases or functions annotation: Quantity of cells [2]: Inhibited
- Effect on diseases or functions annotation: Quantity of lymphocytes [2]: Inhibited
- z score, Ingenuity canonical pathway: Endothelin-1 Signaling [3]: 1
- z score, Ingenuity canonical pathway: Phospholipase C Signaling [3]: 2
- z score, Ingenuity canonical pathway: cAMP-mediated signaling [3]: 1
- Diseases or functions annotation: Abdominal neoplasm [4]: Inhibited
- Diseases or functions annotation: Apoptosis [4]: Inhibited
- Diseases or functions annotation: Apoptosis of tumor cell lines [4]: Activated
- Diseases or functions annotation: Cancer [4]: Activated
- Diseases or functions annotation: Carcinoma [4]: Activated
- Diseases or functions annotation: Cell death [4]: Inhibited
- Diseases or functions annotation: Cell death of tumor cell lines [4]: Activated
- Diseases or functions annotation: Cell movement of myeloid cells [4]: Activated
- Diseases or functions annotation: Development of carcinoma [4]: Activated
- Diseases or functions annotation: Development of connective tissue cells [4]: Activated
- Diseases or functions annotation: Development of malignant tumor [4]: Inhibited
- Diseases or functions annotation: Differentiation of bone cells [4]: Activated
- Diseases or functions annotation: Epithelial neoplasm [4]: Activated
- Diseases or functions annotation: Extracranial solid tumor [4]: Activated
- Diseases or functions annotation: Frequency of tumor [4]: Inhibited
- Diseases or functions annotation: Genitourinary tumor [4]: Activated
- Diseases or functions annotation: Incidence of tumor [4]: Inhibited
- Diseases or functions annotation: Leukocyte migration [4]: Activated
- Diseases or functions annotation: Necrosis [4]: Activated
- Diseases or functions annotation: Non-melanoma solid tumor [4]: Activated
- Diseases or functions annotation: Quantity of cells [4]: Activated
- Diseases or functions annotation: Solid tumor [4]: Activated
- Diseases or functions annotation: Transcription [4]: Activated
- Diseases or functions annotation: Transcription of RNA [4]: Activated
- Diseases or functions annotation: Tumorigenesis of epithelial neoplasm [4]: Activated
- Diseases or functions annotation: Tumorigenesis of tissue [4]: Activated
- Ingenuity canonical pathway: Endothelin-1 Signaling [4]: Activated
- Ingenuity canonical pathway: Phospholipase C Signaling [4]: Activated
- Ingenuity canonical pathway: cAMP-mediated signaling [4]: Activated
- Diseases or functions annotation: Abdominal cancer [5]: Inhibited
- Diseases or functions annotation: Abdominal neoplasm [5]: Inhibited
- Diseases or functions annotation: Adenocarcinoma [5]: Inhibited
- Diseases or functions annotation: Branching of cells [5]: Activated
- Diseases or functions annotation: Carcinoma [5]: Inhibited
- Diseases or functions annotation: Cell movement [5]: Activated
- Diseases or functions annotation: Cell-cell contact [5]: Activated
- Diseases or functions annotation: Concentration of hormone [5]: Activated
- Diseases or functions annotation: Concentration of lipid [5]: Inhibited
- Diseases or functions annotation: Dendritic growth/branching [5]: Inhibited
- Diseases or functions annotation: Development of connective tissue cells [5]: Inhibited
- Diseases or functions annotation: Development of gap junctions [5]: Activated
- Diseases or functions annotation: Development of neurons [5]: Activated
- Diseases or functions annotation: Developmental process of synapse [5]: Activated
- Diseases or functions annotation: Differentiation of bone cells [5]: Inhibited
- Diseases or functions annotation: Differentiation of connective tissue cells [5]: Inhibited
- Diseases or functions annotation: Digestive organ tumor [5]: Inhibited
- Diseases or functions annotation: Digestive system cancer [5]: Inhibited
- Diseases or functions annotation: Epithelial neoplasm [5]: Inhibited
- Diseases or functions annotation: Extracranial solid tumor [5]: Activated
- Diseases or functions annotation: Formation of cellular protrusions [5]: Activated
- Diseases or functions annotation: Formation of intercellular junctions [5]: Activated
- Diseases or functions annotation: Gastrointestinal tumor [5]: Inhibited
- Diseases or functions annotation: Hematologic cancer [5]: Inhibited
- Diseases or functions annotation: Hematopoietic neoplasm [5]: Inhibited
- Diseases or functions annotation: Learning [5]: Activated
- Diseases or functions annotation: Microtubule dynamics [5]: Activated
- Diseases or functions annotation: Migration of cells [5]: Activated
- Diseases or functions annotation: Morphogenesis of neurons [5]: Activated
- Diseases or functions annotation: Neurotransmission [5]: Activated
- Diseases or functions annotation: Non-hematological solid tumor [5]: Inhibited
- Diseases or functions annotation: Non-melanoma solid tumor [5]: Inhibited
- Diseases or functions annotation: Nonhematologic malignant neoplasm [5]: Inhibited
- Diseases or functions annotation: Obesity [5]: Activated
- Diseases or functions annotation: Organization of cytoplasm [5]: Activated
- Diseases or functions annotation: Organization of cytoskeleton [5]: Activated
- Diseases or functions annotation: Quantity of Ca^2+ [5]: Activated
- Diseases or functions annotation: Quantity of carbohydrate [5]: Inhibited
- Diseases or functions annotation: Quantity of cells [5]: Activated
- Diseases or functions annotation: Seizure disorder [5]: Activated
- Diseases or functions annotation: Size of body [5]: Activated
- Diseases or functions annotation: Skin lesion [5]: Activated
- Diseases or functions annotation: Transport of ion [5]: Activated
- Diseases or functions annotation: Transport of metal [5]: Activated
- Diseases or functions annotation: Transport of molecule [5]: Activated
- Diseases or functions annotation: Tumorigenesis of tissue [5]: Inhibited
- z score, Ingenuity canonical pathway: 3-phosphoinositide Degradation [6]: 2
- z score, Ingenuity canonical pathway: Acute Phase Response Signaling [6]: −0.447
- z score, Ingenuity canonical pathway: Adrenomedullin signaling pathway [6]: −0.378
- z score, Ingenuity canonical pathway: B Cell Receptor Signaling [6]: −0.447
- z score, Ingenuity canonical pathway: Ephrin Receptor Signaling [6]: 2.236
- z score, Ingenuity canonical pathway: Fc Epsilon RI Signaling [6]: −1
- z score, Ingenuity canonical pathway: G Beta Gamma Signaling [6]: 2.236
- z score, Ingenuity canonical pathway: NF-κB Signaling [6]: 0.447
- z score, Ingenuity canonical pathway: Opioid Signaling Pathway [6]: 0.816
- z score, Ingenuity canonical pathway: Role of NFAT in Cardiac Hypertrophy [6]: 0.447
- z score, Ingenuity canonical pathway: Role of NFAT in Regulation of the Immune Response [6]: 2.236
- z score, Ingenuity canonical pathway: Signaling by Rho Family GTPases [6]: 1
- z score, Ingenuity canonical pathway: Superpathway of Inositol Phosphate Compounds [6]: 2
- z score, Ingenuity canonical pathway: Synaptic Long Term Depression [6]: 1.342
- Ingenuity canonical pathway: 3-phosphoinositide Degradation [7]: Activated
- Ingenuity canonical pathway: Acute Phase Response Signaling [7]: Inhibited
- Ingenuity canonical pathway: Adrenomedullin signaling pathway [7]: Inhibited
- Ingenuity canonical pathway: B Cell Receptor Signaling [7]: Inhibited
- Ingenuity canonical pathway: Ephrin Receptor Signaling [7]: Activated
- Ingenuity canonical pathway: Fc Epsilon RI Signaling [7]: Inhibited
- Ingenuity canonical pathway: G Beta Gamma Signaling [7]: Activated
- Ingenuity canonical pathway: NF-κB Signaling [7]: Activated
- Ingenuity canonical pathway: Opioid Signaling Pathway [7]: Activated
- Ingenuity canonical pathway: Role of NFAT in Cardiac Hypertrophy [7]: Activated
- Ingenuity canonical pathway: Role of NFAT in Regulation of the Immune Response [7]: Activated
- Ingenuity canonical pathway: Signaling by Rho Family GTPases [7]: Activated
- Ingenuity canonical pathway: Superpathway of Inositol Phosphate Compounds [7]: Activated
- Ingenuity canonical pathway: Synaptic Long Term Depression [7]: Activated
